Laboratory results taken from ChEMBL document CHEMBL1201861, “Genomics of Drug Sensitity in Cancer screening data, Wellcome Trust Sanger Institute”.

Assays:
Experiment in all cases: cells
KG-1 = format: functional, cell-based, Homo sapiens; conditions: Homo sapiens, KG-1;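 further: growth inhibition of KG-1 cells, read out by a cell viability assay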
Description: SANGER: Inhibition of human KG-1 cell growth in a cell viability assay.

TGBC1TKB = format: functional, cell-based, Homo sapiens; conditions: Homo sapiens, TGBC1TKB;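 further: growth inhibition of TGBC1TKB cells, read out by a cell viability assay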
Description: SANGER: Inhibition of human TGBC1TKB cell growth in a cell viability assay.

ES4 = format: functional, cell-based, Homo sapiens; conditions: Homo sapiens, ES4;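 further: growth inhibition of human ES4 cells, read out by a cell viability assay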
Description: SANGER: Inhibition of human ES4 cell growth in a cell viability assay.

LOX IMVI = format: functional, cell-based, Homo sapiens; conditions: Homo sapiens, LOX IMVI
Description: SANGER: Inhibition of human LOXIMVI cell growth in a cell viability assay.

OVCAR-4 = format: functional, cell-based, Homo sapiens; conditions: Homo sapiens, OVCAR-4;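 further: growth inhibition of human OVCAR-4 cells, measured with a cell viability assay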
Description: SANGER: Inhibition of human OVCAR-4 cell growth in a cell viability assay.

Calu-6 = format: functional, cell-based, Homo sapiens; conditions: Homo sapiens, Calu-6;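 further: growth of human Calu-6 cells, read out by a cell viability assay, IC50 marking inhibition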
Description: SANGER: Inhibition of human Calu-6 cell growth in a cell viability assay.

QIMR-WIL = format: functional, cell-based, Homo sapiens; conditions: Homo sapiens, QIMR-WIL;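 further: growth inhibition of QIMR-WIL cells, read out with a cell viability assay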
Description: SANGER: Inhibition of human QIMR-WIL cell growth in a cell viability assay.

TGBC24TKB = format: functional, cell-based, Homo sapiens; conditions: Homo sapiens, TGBC24TKB;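 further: growth inhibition of human TGBC24TKB cells, read out with a cell viability assay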
Description: SANGER: Inhibition of human TGBC24TKB cell growth in a cell viability assay.

NCI-H446 = format: functional, cell-based, Homo sapiens; conditions: Homo sapiens, NCI-H446;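 further: growth inhibition of NCI-H446 cells determined by a cell viability assay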
Description: SANGER: Inhibition of human NCI-H446 cell growth in a cell viability assay.

LU-134-A = format: functional, cell-based, Homo sapiens; conditions: Homo sapiens, LU-134-A
Description: SANGER: Inhibition of human LU-134-A cell growth in a cell viability assay.

MS-1 = format: functional, cell-based, Homo sapiens; conditions: Homo sapiens, MS-1
Description: SANGER: Inhibition of human MS-1 cell growth in a cell viability assay.

OMC-1 = format: functional, cell-based, Homo sapiens; conditions: Homo sapiens, OMC-1;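 further: growth inhibition of the OMC-1 cell line, measured by a cell viability assay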
Description: SANGER: Inhibition of human OMC-1 cell growth in a cell viability assay.

HT = format: functional, cell-based, Homo sapiens; conditions: Homo sapiens, HT
Description: SANGER: Inhibition of human HT cell growth in a cell viability assay.

C2BBe1 = format: functional, cell-based, Homo sapiens; conditions: Homo sapiens, C2BBe1;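 further: growth inhibition of C2BBe1 cells, read out through a viability assay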
Description: SANGER: Inhibition of human C2BBe1 cell growth in a cell viability assay.

NCI-H1581 = format: functional, cell-based, Homo sapiens; conditions: Homo sapiens, NCI-H1581;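 further: cell growth inhibition read out by a viability assay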
Description: SANGER: Inhibition of human NCI-H1581 cell growth in a cell viability assay.

AM-38 = format: functional, cell-based, Homo sapiens; conditions: Homo sapiens, AM-38;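 further: growth inhibition of AM-38 cells of human origin, read out by a cell viability assay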
Description: SANGER: Inhibition of human AM-38 cell growth in a cell viability assay.

DSH1 = format: functional, cell-based, Homo sapiens; conditions: Homo sapiens, DSH1;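 further: growth inhibition of human DSH1 cells, measured with a cell viability readout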
Description: SANGER: Inhibition of human DSH1 cell growth in a cell viability assay.

ETK-1 = format: functional, cell-based, Homo sapiens; conditions: Homo sapiens, ETK-1;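 further: growth inhibition of human ETK-1 cells, read out with a cell viability assay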
Description: SANGER: Inhibition of human ETK-1 cell growth in a cell viability assay.

SF-539 = format: functional, cell-based, Homo sapiens; conditions: Homo sapiens, SF-539;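 further: Read-out is a cell viability assay, with IC50 reflecting inhibition of cell growth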
Description: SANGER: Inhibition of human SF539 cell growth in a cell viability assay.

NOMO-1 = format: functional, cell-based, Homo sapiens; conditions: Homo sapiens, NOMO-1;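 further: growth inhibition of human NOMO-1 cells measured by a cell viability assay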
Description: SANGER: Inhibition of human NOMO-1 cell growth in a cell viability assay.

SNB-75 = format: functional, cell-based, Homo sapiens; conditions: Homo sapiens, SNB-75;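 further: cell viability assay measuring growth inhibition of human SNB-75 cells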
Description: SANGER: Inhibition of human SNB75 cell growth in a cell viability assay.

L-428 = format: functional, cell-based, Homo sapiens; conditions: Homo sapiens, L-428
Description: SANGER: Inhibition of human L-428 cell growth in a cell viability assay.

KM12 = format: functional, cell-based, Homo sapiens; conditions: Homo sapiens, KM12;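 further: KM12 cell growth inhibition, read out with a cell viability assay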
Description: SANGER: Inhibition of human KM12 cell growth in a cell viability assay.

MC116 = format: functional, cell-based, Homo sapiens; conditions: Homo sapiens, MC116;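 further: growth inhibition of MC116 cells, read out with a cell viability assay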
Description: SANGER: Inhibition of human MC116 cell growth in a cell viability assay.

HCC2157 = format: functional, cell-based, Homo sapiens; conditions: Homo sapiens, HCC2157;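 further: growth inhibition of the cancer cell line, read out as cell viability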
Description: SANGER: Inhibition of human HCC2157 cell growth in a cell viability assay.

KU812 cell line = format: functional, cell-based, Homo sapiens; conditions: Homo sapiens, KU812;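 further: growth inhibition of KU812 cells, read out with a cell viability assay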
Description: SANGER: Inhibition of human KU812 cell growth in a cell viability assay.

CCRF-CEM = format: functional, cell-based, Homo sapiens; conditions: Homo sapiens, CCRF-CEM;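 further: inhibition of CCRF-CEM cell growth, measured by a cell viability assay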
Description: SANGER: Inhibition of human CCRF-CEM cell growth in a cell viability assay.

TE-10 = format: functional, cell-based, Homo sapiens; conditions: Homo sapiens, TE-10;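 further: growth inhibition of TE-10 cells, measured by a cell viability assay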
Description: SANGER: Inhibition of human TE-10 cell growth in a cell viability assay.

NCI-H720 = format: functional, cell-based, Homo sapiens; conditions: Homo sapiens, NCI-H720;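 further: growth inhibition of human NCI-H720 cells determined by a cell viability assay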
Description: SANGER: Inhibition of human NCI-H720 cell growth in a cell viability assay.

SW 962 = format: functional, cell-based, Homo sapiens; conditions: Homo sapiens, SW 962;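 further: growth inhibition of human SW962 cells, read out by a cell viability assay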
Description: SANGER: Inhibition of human SW962 cell growth in a cell viability assay.

DMS-114 = format: functional, cell-based, Homo sapiens; conditions: Homo sapiens, DMS-114
SNU1 = format: functional, cell-based, Homo sapiens; conditions: Homo sapiens, SNU1;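 further: growth inhibition of human NCI-SNU-1 cells, measured with a cell viability assay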
Description: SANGER: Inhibition of human NCI-SNU-1 cell growth in a cell viability assay.

SW872 = format: functional, cell-based, Homo sapiens; conditions: Homo sapiens, SW872;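 further: growth inhibition of SW872 cells, read out by a viability assay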
Description: SANGER: Inhibition of human SW872 cell growth in a cell viability assay.

LB771-HNC = format: functional, cell-based, Homo sapiens; conditions: Homo sapiens, LB771-HNC;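 further: growth inhibition of LB771-HNC human cells, read out with a cell viability assay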
Description: SANGER: Inhibition of human LB771-HNC cell growth in a cell viability assay.

RXF 393 = format: functional, cell-based, Homo sapiens; conditions: Homo sapiens, RXF 393;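 further: growth inhibition of human RXF 393 cells, read out with a cell viability assay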
Description: SANGER: Inhibition of human RXF393 cell growth in a cell viability assay.

DB = format: functional, cell-based, Homo sapiens; conditions: Homo sapiens, DB
Description: SANGER: Inhibition of human DB cell growth in a cell viability assay.

CAS-1 = format: functional, cell-based, Homo sapiens; conditions: Homo sapiens, CAS-1;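 further: growth inhibition of CAS-1 cells, measured with a cell viability assay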
Description: SANGER: Inhibition of human CAS-1 cell growth in a cell viability assay.

UACC-257 = format: functional, cell-based, Homo sapiens; conditions: Homo sapiens, UACC-257
Description: SANGER: Inhibition of human UACC-257 cell growth in a cell viability assay.

ES3 = format: functional, cell-based, Homo sapiens; conditions: Homo sapiens, ES3;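 further: growth inhibition of ES3 cells, read out with a cell viability assay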
Description: SANGER: Inhibition of human ES3 cell growth in a cell viability assay.

IST-SL1 = format: functional, cell-based, Homo sapiens; conditions: Homo sapiens, IST-SL1;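 further: growth inhibition of human IST-SL1 cells, read out with a cell viability assay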
Description: SANGER: Inhibition of human IST-SL1 cell growth in a cell viability assay.

TE-9 = format: functional, cell-based, Homo sapiens; conditions: Homo sapiens, TE-9;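 further: cell growth inhibition, measured with a cell viability readout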
Description: SANGER: Inhibition of human TE-9 cell growth in a cell viability assay.

MV4-11 = format: functional, cell-based, Homo sapiens, MV-4-11; conditions: Homo sapiens, MV4-11;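 further: cell viability readout measuring growth inhibition of human MV-4-11 cells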
Description: SANGER: Inhibition of human MV-4-11 cell growth in a cell viability assay.

HH = format: functional, cell-based, Homo sapiens; conditions: Homo sapiens, HH
Description: SANGER: Inhibition of human HH cell growth in a cell viability assay.

NCI-H1648 = format: functional, cell-based, Homo sapiens; conditions: Homo sapiens, NCI-H1648;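 further: cell viability assay measuring inhibition of NCI-H1648 cell growth, from the Sanger screening data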
Description: SANGER: Inhibition of human NCI-H1648 cell growth in a cell viability assay.

EC-GI-10 = format: functional, cell-based, Homo sapiens; conditions: Homo sapiens, EC-GI-10
Description: SANGER: Inhibition of human EC-GI-10 cell growth in a cell viability assay.

NCI-H1838 = format: functional, cell-based, Homo sapiens; conditions: Homo sapiens, NCI-H1838;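 further: growth inhibition of NCI-H1838 cells, determined with a cell viability readout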
Description: SANGER: Inhibition of human NCI-H1838 cell growth in a cell viability assay.

K5 = format: functional, cell-based, Homo sapiens; conditions: Homo sapiens, K5
Description: SANGER: Inhibition of human K5 cell growth in a cell viability assay.

EW-24 = format: functional, cell-based, Homo sapiens; conditions: Homo sapiens, EW-24;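 further: human EW-24 cancer cell line, growth inhibition read out via a cell viability assay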
Description: SANGER: Inhibition of human EW-24 cell growth in a cell viability assay.

SK-LMS-1 = format: functional, cell-based, Homo sapiens; conditions: Homo sapiens, SK-LMS-1;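 further: growth inhibition of human SK-LMS-1 cells, read out with a cell viability assay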
Description: SANGER: Inhibition of human SK-LMS-1 cell growth in a cell viability assay.

`Cn1cnc2c(F)c(Nc3ccc(Br)cc3Cl)c(C(=O)NOCCO)cc21` [SELUMETINIB] was tested, and the IC50 (KG-1) was 895 nM, the IC50 (TGBC1TKB) was greater than 4 µM and the IC50 (ES4) was greater than 4 µM. It also gave an IC50 (LOX IMVI) of 859 nM, an IC50 (OVCAR-4) greater than 4 µM and an IC50 (Calu-6) greater than 4 µM. The IC50 (QIMR-WIL) was 1340 nM, the IC50 (TGBC24TKB) was greater than 4 µM and the IC50 (NCI-H446) was greater than 4 µM. It also gave an IC50 (LU-134-A) greater than 4 µM, an IC50 (MS-1) greater than 4 µM and an IC50 (OMC-1) greater than 4 µM. The IC50 (HT) was greater than 4 µM, the IC50 (C2BBe1) was 273 nM and the IC50 (NCI-H1581) was greater than 4 µM. The IC50 (AM-38) was greater than 4 µM, the IC50 (DSH1) was greater than 4 µM and the IC50 (ETK-1) was greater than 4 µM. For the same molecule, the IC50 (SF-539) was greater than 4 µM, the IC50 (NOMO-1) was 32 nM and the IC50 (SNB-75) was greater than 4 µM. For the same molecule, the IC50 (L-428) was greater than 4 µM, the IC50 (KM12) was 2540 nM and the IC50 (MC116) was greater than 4 µM. For the same molecule, the IC50 (HCC2157) was greater than 4 µM, the IC50 (KU812 cell line) was 212 nM and the IC50 (CCRF-CEM) was greater than 4 µM. For the same molecule, the IC50 (TE-10) was greater than 4 µM, the IC50 (NCI-H720) was greater than 4 µM and the IC50 (SW 962) was greater than 4 µM. It also gave an IC50 (DMS-114) greater than 4 µM, an IC50 (SNU1) of 1770 nM and an IC50 (SW872) of 1270 nM. For the same molecule, the IC50 (LB771-HNC) was greater than 4000 nM, the IC50 (RXF 393) was greater than 4 µM and the IC50 (DB) was greater than 4 µM. It also gave an IC50 (CAS-1) greater than 4 µM, an IC50 (UACC-257) of 322 nM and an IC50 (ES3) greater than 4 µM. For the same molecule, the IC50 (IST-SL1) was greater than 4 µM, the IC50 (TE-9) was greater than 4 µM and the IC50 (MV4-11) was 575 nM. For the same molecule, the IC50 (HH) was greater than 4 µM.
With `Nc1cccc2c1CN(C1CCC(=O)NC1=O)C2=O` (stereo unspecified) [LENALIDOMIDE] the IC50 (KG-1) was greater than 5000 nM, the IC50 (TGBC1TKB) was greater than 5 µM and the IC50 (ES4) was greater than 5 µM. For the same molecule, the IC50 (LOX IMVI) was greater than 5000 nM, the IC50 (OVCAR-4) was greater than 5 µM and the IC50 (Calu-6) was greater than 5 µM. The IC50 (QIMR-WIL) was greater than 5000 nM, the IC50 (TGBC24TKB) was greater than 5 µM and the IC50 (NCI-H446) was greater than 5 µM. The IC50 (NCI-H1648) was greater than 5 µM, the IC50 (LU-134-A) was greater than 5 µM and the IC50 (MS-1) was greater than 5 µM. The IC50 (OMC-1) was greater than 5 µM, the IC50 (HT) was greater than 5 µM and the IC50 (C2BBe1) was greater than 5000 nM. It also gave an IC50 (NCI-H1581) greater than 5 µM, an IC50 (AM-38) greater than 5 µM and an IC50 (DSH1) greater than 5 µM. It also gave an IC50 (ETK-1) greater than 5 µM, an IC50 (SF-539) greater than 5 µM and an IC50 (NOMO-1) greater than 5000 nM. The IC50 (SNB-75) was greater than 5 µM, the IC50 (L-428) was greater than 5 µM and the IC50 (EC-GI-10) was greater than 5 µM. It also gave an IC50 (KM12) greater than 5000 nM, an IC50 (MC116) greater than 5 µM and an IC50 (NCI-H1838) greater than 5 µM. The IC50 (KU812 cell line) was greater than 5000 nM, the IC50 (CCRF-CEM) was greater than 5 µM and the IC50 (TE-10) was greater than 5 µM. The IC50 (NCI-H720) was greater than 5 µM, the IC50 (K5) was greater than 5 µM and the IC50 (SW 962) was greater than 5 µM. For the same molecule, the IC50 (DMS-114) was greater than 5 µM, the IC50 (SNU1) was greater than 5000 nM and the IC50 (SW872) was greater than 5000 nM. It also gave an IC50 (LB771-HNC) of 2150 nM, an IC50 (RXF 393) greater than 5 µM and an IC50 (DB) greater than 5 µM. For the same molecule, the IC50 (CAS-1) was greater than 5 µM, the IC50 (UACC-257) was greater than 5000 nM and the IC50 (ES3) was greater than 5 µM. It also gave an IC50 (IST-SL1) greater than 5 µM, an IC50 (EW-24) greater than 5 µM and an IC50 (TE-9) greater than 5 µM. It also gave an IC50 (MV4-11) greater than 5000 nM, an IC50 (HH) greater than 5 µM and an IC50 (SK-LMS-1) greater than 5 µM.
